Results published in US20130053400A1, “OLIGOMER-ANTIHISTAMINE CONJUGATES” (priority 2007, published 2013).
Values joined by “and” are separate entries in the source; they are usually repeats but may differ in a detail not shown here. Equal entries are not always repeated. Where two headings read alike, the source gives them in different places. Values belong to the compound of their own block, whether it stands above or below them.

Columns and labels:
intact rat brain = settings: in vivo, 30 seconds, 20 μM
[1] = tested on: histamine-induced wheal and flare response; type: in vivo; settings: for percent decrease in the wheal response (change in wheal size): 20 minute time-point, 0.1-0.3 mg/kg dose range
Description: Wheal and flare (erythema) experiments were performed in rats in order to measure in vivo activity of PEG-diphenhydramine. Intradermal injection of histamine produces a “wheal and flare” response in the skin as a result of histamine-induced mast cell degranulation, which is prevented by treatment with effective antihistamines.
Histamine was prepared from histamine diphosphate salt at 1 mg/mL (3.26 mM) in PBS, and was administered by intradermal injection 2.5 minutes after IV injection of the test article to the tail vein. At 5, 10, 20, 30 and 60 minutes post-injection, wheal sizes were measured using calipers and areas calculated (width×length, mm^2). Flare responses were measured by eye, and were graded on a scoring system of 1 (least significant)-5 (most severe).

[2] = tested on: histamine-induced wheal and flare; experiment: Wheal and flare further study, intravenous infusion; type: in vivo, rats; settings: for antihistamine efficacy (wheal size): IV infusion, rats
Description: Briefly, rats received a continuous infusion via the jugular vein catheter for 60 minutes. […] Sixty minutes after the start of the infusion period, the rats were given four (4) interdermal (ID) injections of histamine ([…] in saline; dose 50 μL at 10 μg/rat). […] Twenty minutes after the histamine injections a caliper (Fowler Sylvac Ultra-Cal Mark III) was used to measure the wheal and flare (the diameter of the blue area). Two measurements of the diameter of the blue area at the site of histamine injection were made at 90 degrees from one another. […] Blood samples collected via cardiac puncture were used for diphenhydramine quantitation. The blood samples were placed in vacutainer tubes containing K2 EDTA. The rats were exsanguinated and the brain was rinsed in ice cold saline, wrapped in foil and frozen. The brain and the plasma samples were analyzed for drug content.

Histamine (H1) = Histamine (H1) (Homo sapiens, UniProt P35367); experiment: Histamine (H1) Binding Activity (Table I)
Histamine (H1), sequence (P35367 whole entry): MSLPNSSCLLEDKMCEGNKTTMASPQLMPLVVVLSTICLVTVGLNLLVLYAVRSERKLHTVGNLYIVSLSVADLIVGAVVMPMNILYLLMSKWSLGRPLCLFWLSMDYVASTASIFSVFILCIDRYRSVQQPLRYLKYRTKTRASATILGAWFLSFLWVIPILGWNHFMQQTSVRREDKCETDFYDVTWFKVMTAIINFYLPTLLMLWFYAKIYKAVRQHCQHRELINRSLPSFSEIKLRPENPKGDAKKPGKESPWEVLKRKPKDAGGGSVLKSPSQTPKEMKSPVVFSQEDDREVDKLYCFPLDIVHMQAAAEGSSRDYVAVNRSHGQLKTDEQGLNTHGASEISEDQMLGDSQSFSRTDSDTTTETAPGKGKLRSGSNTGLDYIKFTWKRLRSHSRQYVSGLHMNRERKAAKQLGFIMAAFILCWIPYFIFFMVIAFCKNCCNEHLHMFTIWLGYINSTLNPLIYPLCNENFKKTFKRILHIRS

Solubility = type: physicochemical; settings: Table I
[3] = target: human recombinant H1 histamine receptors (Homo sapiens, UniProt P35367); experiment: biochemical
human recombinant H1 histamine receptors, sequence (P35367 whole entry): as above
Description: (Caliper Life Sciences, Hopkinton, Mass.). […] This study was performed using duplicate samples per data point (n=2).

[4] = tested on: spontaneously beating rat hearts; experiment: In vitro safety pharmacology, spontaneously beating rat hearts
Excerpt: The objective of this study was to determine the potential effects of escalating concentrations of conjugates on electrophysiological (PQ, QRS, RR, QT, QTc), and mechanical (dLVP/dtmax and dLVP/dtmin) properties in spontaneously beating rat hearts.

[5] = Pharmacokinetics and oral bioavailability in rats; type: in vivo; settings: for half-life: read-out: T ½ (converted); for Vd: read-out: Vss; for bioavailability: read-out: F (oral bioavailability)
Description: For oral doses, 5 mg/kg if DPH-equivalent were used. […] Animals were dosed in triplicate by bolus injection to the femoral vein (IV) or oral gavage (PO), and whole blood was collected from the carotid artery from all animals at the appropriate time points for preparation of plasma samples. Quantitation of test article in plasma was performed by LC-MS/MS.

[6] = Blood-brain barrier penetration, brain:plasma ratio after tail vein injection; settings: for Fold change (vs DPH): brain concentration, adjusted for DPH molar dose twice that of conjugates; for Kp at 1 h / concentration at 1 h: rat, intravenous; for Kp at 1 h: brain and plasma
Description: The four compounds were tested following intravenous injection to the tail vein in rats.
After ensuring a single rat remained viable following a test dose, the rats (4 per condition) were dosed by tail vein injection and were sacrificed one hour later. Blood was collected by cardiac puncture, and brain tissue was collected. Plasma was prepared and brain tissue homogenized to enable quantitation of drug content by LC-MS/MS.
Concentrations of each compound were determined and brain:plasma ratios calculated accordingly.

guinea pig hearts [7] = tested on: guinea pig hearts
in vitro = settings: human, hepatocytes
human hepatocytes = experiment: Metabolic stability in human hepatocytes; settings: for metabolic breakdown / hepatic intrinsic clearance compared with diphenhydramine: human, hepatocytes
rat hepatocyte = experiment: Rat hepatocyte incubation
hepatocytes = experiment: Hepatocyte metabolism, dog
[8] = target: T1, cloned hERG channels stably expressed in HEK cells (Homo sapiens, UniProt Q12809); experiment: hERG current inhibition, electrophysiology
T1 sequence (Q12809 whole entry): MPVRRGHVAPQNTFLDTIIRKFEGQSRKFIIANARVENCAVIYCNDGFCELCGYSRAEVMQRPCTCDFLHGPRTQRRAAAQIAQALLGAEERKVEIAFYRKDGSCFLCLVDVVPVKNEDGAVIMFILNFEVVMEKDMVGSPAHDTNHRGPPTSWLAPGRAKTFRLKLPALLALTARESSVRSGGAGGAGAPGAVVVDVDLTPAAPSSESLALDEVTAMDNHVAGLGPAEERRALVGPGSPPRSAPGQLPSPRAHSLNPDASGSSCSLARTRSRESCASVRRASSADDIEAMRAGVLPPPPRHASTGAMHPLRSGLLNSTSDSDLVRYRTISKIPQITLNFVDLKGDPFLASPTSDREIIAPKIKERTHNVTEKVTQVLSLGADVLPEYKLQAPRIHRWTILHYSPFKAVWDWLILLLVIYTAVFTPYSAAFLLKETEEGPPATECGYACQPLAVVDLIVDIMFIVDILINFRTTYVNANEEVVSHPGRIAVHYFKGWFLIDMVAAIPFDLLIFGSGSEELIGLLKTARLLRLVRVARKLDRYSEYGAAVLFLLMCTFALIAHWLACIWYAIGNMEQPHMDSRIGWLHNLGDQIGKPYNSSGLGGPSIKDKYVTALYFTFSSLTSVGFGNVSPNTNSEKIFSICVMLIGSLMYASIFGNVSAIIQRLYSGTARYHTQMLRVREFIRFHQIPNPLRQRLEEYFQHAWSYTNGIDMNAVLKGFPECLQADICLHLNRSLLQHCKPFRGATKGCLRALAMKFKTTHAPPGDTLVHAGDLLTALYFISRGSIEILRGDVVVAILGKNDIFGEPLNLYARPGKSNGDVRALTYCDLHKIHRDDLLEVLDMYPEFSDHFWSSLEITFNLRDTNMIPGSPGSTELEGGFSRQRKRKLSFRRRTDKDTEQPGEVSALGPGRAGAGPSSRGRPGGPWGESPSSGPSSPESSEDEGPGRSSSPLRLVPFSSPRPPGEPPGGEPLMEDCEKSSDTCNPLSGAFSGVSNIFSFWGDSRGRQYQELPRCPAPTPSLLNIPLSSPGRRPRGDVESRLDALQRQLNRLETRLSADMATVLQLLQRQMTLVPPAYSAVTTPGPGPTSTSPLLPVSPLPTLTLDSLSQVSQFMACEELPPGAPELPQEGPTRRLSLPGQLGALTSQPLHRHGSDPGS

[9] = target: T1, cloned hERG channels stably expressed in HEK cells
guinea pig hearts [10] = experiment: In vitro safety pharmacology, guinea pig hearts; settings: rat and guinea pig preparations responded similarly
[11] = rat, plasma, IV, 1 mg/kg DPH-equivalent
[12] = rat, plasma, IV, 1 mg/kg DPH-equivalent, read-out: Cmax
[13] = rat, plasma, oral 5 mg/kg vs IV 1 mg/kg
[14] = rat, plasma, oral, 5 mg/kg DPH-equivalent
[15] = rat, plasma, oral, 5 mg/kg DPH-equivalent, read-out: Cmax
[16] = rat, plasma, oral, 5 mg/kg DPH-equivalent, read-out: Tmax
[17] = Ki ratio, repeated assay (asterisk), n=3
[18] = repeated assay (asterisk), n=3 samples per data point
[19] = one hour after tail vein injection, rats

Structure (SMILES): Cc1cc(=O)n(-c2ccccc2)n1C [Antipyrine]
Normalized Brain Uptake Rate (Mean ± SD) (intact rat brain): 17.4 ± 5.7 pmole/gm brain/sec

Structure (SMILES): CN(C)CCOC(c1ccccc1)c1ccccc1 [Diphenhydramine, reference compound]
flare response (visual scoring) ([1]; 0.01 mg/kg): protective effect of diphenhydramine begins to decrease | flare response (visual scoring) ([1]; 0.03 mg/kg): still suppresses the response effectively | percent decrease in the wheal response (change in wheal size) [1]: approximately 40% | wheal size ([1]; all doses tested): clear dose-dependent reduction | flare response (visual scoring) ([1]; highest concentrations): no detectable flare | antihistamine efficacy (wheal size) [2]: dose dependent reduction in wheal size

Normalized Brain Uptake Rate (Mean ± SD) (intact rat brain): 355.89 ± 59.02 pmole/gm brain/sec
Structure (SMILES): OCCOCCN1CCN(C(c2ccccc2)c2ccc(Cl)cc2)CC1 (stereo not drawn) [Hydroxyzine, reference compound]

IC50 (Histamine (H1); read-out: IC50): 70.3 nM | Solubility (Solubility): soluble
Structure (SMILES): COCCOCCOCCN1CCN(C(c2ccccc2)c2ccc(Cl)cc2)CC1 (stereo not drawn) [PEG1 -Hydroxyzine, mPEG1-Hydroxyzine]

IC50 (Histamine (H1); read-out: IC50): 105 nM | Solubility (Solubility): soluble
Structure (SMILES): COCCOCCOCCOCCOCCN1CCN(C(c2ccccc2)c2ccc(Cl)cc2)CC1 (stereo not drawn) [PEG3-Hydroxyzine, mPEG3-Hydroxyzine]

Solubility (Solubility): soluble
Structure (SMILES): COCCOCCOCCOCCOCCNC(=O)COCCN1CCN(C(c2ccccc2)c2ccc(Cl)cc2)CC1 (stereo not drawn) [PEG5-Cetirizine, mPEG5-Cetirizine]

IC50 (Histamine (H1); read-out: IC50): 76.7 nM | Solubility (Solubility): soluble
Structure (SMILES): COCCOCCOCCOCCOCCOCCOCCN1CCN(C(c2ccccc2)c2ccc(Cl)cc2)CC1 (stereo not drawn) [PEG5-Hydroxyzine, mPEG5-Hydroxyzine]

Structure (SMILES): COCCOCCOCCOCCOCCN(C)CCOC(c1ccccc1)c1ccccc1 [mPEG5-N-diphenhydramine]
IC50 (Histamine (H1)): 600 nM | Fold vs parent [3]: 11.1 and 14.6 | Ki [3]: 333 nM and 230 nM | dromotropism (PQ and QRS) [4]: greater negative dromotropism (lengthening of PQ and QRS) than diphenhydramine | effect on coronary smooth muscle [4]: vasodilatory effect | ventricular repolarization (QT and QTc) [4]: retard ventricular repolarization (QT and QTc) slightly more than diphenhydramine or quinidine | cardiodeceleration ([4]; 10^−5 M): greater cardiodeceleration | inotropism and lusitropism ([4]; 10^−5 M): striking positive inotropism and lusitropism | antihistamine efficacy (wheal size) [2]: demonstrated efficacy, but toxicity occurs at same concentrations | fold weaker than diphenhydramine ([2]; efficacy at diphenhydramine-equivalent target plasma concentrations): ≥ 10 fold | AUC(0-inf) [5, 11]: 391 ng·h/mL | clearance [5, 11]: 69.5 mL/min/kg | Cmax [5, 12]: 821 ng/mL | half-life [5, 11]: 19.8 min | Vd [5, 11]: 1.98 L/kg | bioavailability [5, 13]: 1.5% | AUC(0-inf) [5, 14]: 29.4 ng·h/mL | Cmax [5, 15]: 53.6 ng/mL | half-life [5, 14]: 22.8 min | Tmax [5, 16]: 15 min | Fold change (vs DPH) [6]: 28 | Kp at 1 h [6]: 0.2 to 1 | concentration at 1 h ([6]; brain): 97.9 ± 32.9 ng/g | concentration at 1 h ([6]; plasma): 415 ± 78.7 ng/mL | Coronary perfusion (guinea pig hearts [7]): increased dramatically | QRS and PQ durations (guinea pig hearts [7]; guinea pig): increase only for 10^−5 M concentration | half-life (in vitro): 44.2 min | metabolic breakdown / hepatic intrinsic clearance compared with diphenhydramine (human hepatocytes): moderately faster metabolic breakdown than diphenhydramine

IC50 (Histamine (H1); read-out: IC50): 6500 nM
Structure (SMILES): COCCOCCOCCOCCOCCOCCN(CCOC(c1ccccc1)c1ccccc1)CCOC(c1ccccc1)c1ccccc1 [mPEG6-N-(Diphenhydramine)2, mPEGn-N-(diphenhydramine)2]

Structure (SMILES): COCCOCCOCCN(C)CCOC(c1ccccc1)c1ccccc1 [mPEG(3)-N-Diphenhydramine, mPEG3-N-diphenhydramine]
Fold vs parent [3, 17]: 7.8 | Ki [3, 18]: 124 nM

Structure (SMILES): COCCOCCOCCOCCN(C)CCOC(c1ccccc1)c1ccccc1 [mPEG(4)-N-Diphenhydramine, mPEG4-N-diphenhydramine]
Fold vs parent [3, 17]: 12.7 | Ki [3, 18]: 200 nM

Structure (SMILES): COCCOCCOCCOCCOCCOCCN(C)CCOC(c1ccccc1)c1ccccc1 [mPEG(6)-N-Diphenhydramine, mPEG6-N-diphenhydramine]
flare response (visual scoring) ([1]; 0.03 mg/kg): flare responses begin to return | wheal size ([1]; 0.03 mg/kg): did not produce a detectable change in wheal size | toxicity in first animal dosed ([1]; 1 mg/kg IV, rat): suffered convulsions and died | wheal size ([1]; 0.1, 0.3 mg/kg): reduced the size of the wheal compared with control injection | percent decrease in the wheal response (change in wheal size) [1]: approximately 25% | flare response (visual scoring) ([1]; highest concentrations): no detectable flare | AUCinf ([5]; IV, 1 mg/kg DPH-equivalent): 405 ng·h/mL | CL ([5]; IV, 1 mg/kg DPH-equivalent): 73.32 mL/min/kg | Cmax ([5]; IV, 1 mg/kg DPH-equivalent): 790 ng/mL | T ½ ([5]; IV, 1 mg/kg DPH-equivalent): 22.8 min | Vss ([5]; IV, 1 mg/kg DPH-equivalent): 1.91 L/kg | F (oral bioavailability) ([5]; oral 5 mg/kg vs IV 1 mg/kg): 2.4% | AUCinf ([5]; oral, 5 mg/kg DPH-equivalent): 49.1 ng·h/mL | Cmax ([5]; oral, 5 mg/kg DPH-equivalent): 81.9 ng/mL | T ½ ([5]; oral, 5 mg/kg DPH-equivalent): 23.4 min | Tmax ([5]; oral, 5 mg/kg DPH-equivalent): 15 min | Brain concentration [6, 19]: 45.1 ± 4.4 ng/g | Plasma concentration [6, 19]: 237.0 ± 41.1 ng/mL | metabolic breakdown compared with diphenhydramine (rat hepatocyte): slower metabolic breakdown than diphenhydramine | hepatic intrinsic clearance compared with diphenhydramine (hepatocytes): faster than that of the parent diphenhydramine | Half-Life (t1/2) (hepatocytes) (human hepatocytes; human hepatocytes, initial rate of loss of parent, n=1): 122.9 min | metabolic breakdown / hepatic intrinsic clearance compared with diphenhydramine (human hepatocytes): faster than that of the parent diphenhydramine | IC50 ([8]; read-out: IC50 hERG channel, hERG current, HEK cells): 3790 nM

Structure (SMILES): COCCOCCOCCOCCOCCOCCNCCOC(c1ccccc1)c1ccccc1 [mPEG(6)-NH-Diphenhydramine, mPEG6-NH-diphenhydramine]
IC50 (Histamine (H1); read-out: IC50): 4120 nM | Fold vs parent ([3]; Ki ratio, first run, n=2): 62.5 | Ki ([3]; first run, n=2 samples per data point): 1890 nM

Structure (SMILES): COCCOCCOCCOCCOCCOCCOCCN(C)CCOC(c1ccccc1)c1ccccc1 [mPEG(7)-N-Diphenhydramine, mPEG7-N-diphenhydramine]
IC50 (Histamine (H1)): 1730 nM | Fold vs parent [3]: 20.1 and 28.7 | Ki [3]: 605 nM and 454 nM | antihistamine efficacy (wheal size) [2]: no efficacy in concentration range tested | AUC(0-inf) [5, 11]: 410 ng·h/mL | clearance [5, 11]: 78.4 mL/min/kg | Cmax [5, 12]: 882 ng/mL | half-life [5, 11]: 25.8 min | Vd [5, 11]: 2.07 L/kg | bioavailability [5, 13]: 1.3% | AUC(0-inf) [5, 14]: 26.6 ng·h/mL | Cmax [5, 15]: 41.3 ng/mL | half-life [5, 14]: 28.2 min | Tmax [5, 16]: 15 min | Fold change (vs DPH) [6]: 26 | Kp at 1 h [6]: 0.2 to 1 | concentration at 1 h ([6]; brain): 106 ± 27.1 ng/g | concentration at 1 h ([6]; plasma): 545 ± 57.9 ng/mL | IC50 fold lower [9]: 4 fold | half-life (in vitro): 88.4 min | IC50 [8]: 13000 nM

Structure (SMILES): C=C[C@H]1C[N@@]2CC[C@H]1C[C@@H]2[C@@H](O)c1ccnc2ccc(OC)cc12 [quinidine]
QT (guinea pig hearts [10]): lengthened dramatically
